# Tested on: P. falciparum K1 (strain resistant to chloroquine and pyrimethamine), erythrocytic stages
# Experiment: Plasmodium falciparum in vitro assay, [3H] hypoxanthine incorporation
# Assay type: cell-based
# Conditions: Plasmodium falciparum, K1, P. falciparum strain K1; [3H] hypoxanthine incorporation; read-out: IC50 (nM) on K1
# Procedure, shortened: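 Chloroquine/pyrimethamine-resistant K1 erythrocytic cultures (2.5% haematocrit, 0.3% parasitaemia, hypoxanthine-free RPMI with Albumax) exposed to seven doubling dilutions at 37 °C under low O2.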
row,IC50,SMILES
1,21 nM,"CC(=O)N1CCN(c2ccc(CN(C(=O)C=Cc3ccc(C(F)(F)F)cc3)[C@@H](Cc3ccccc3)C(=O)N(C)CCN(C)Cc3nccs3)cc2)CC1 [Example 248, (S)-N-[4-(4-Acetyl-piperazin-1-yl)-benzyl]-N-(1-{methyl-[2-(methyl-thiazol-2-ylmethyl-amino)-ethyl]-carbamoyl}-2-phenyl-ethyl)-3-(4-trifluoromethyl-phenyl)-acrylamide]"
2,23 nM,"CC(=O)N1CCN(c2ccc(CN(C(=O)C=Cc3ccc(C(F)(F)F)cc3)[C@@H](Cc3ccccc3)C(=O)N(C)CCOCc3ccccn3)cc2)CC1 [Example 214, (S)-N-[4-(4-Acetyl-piperazin-1-yl)-benzyl]-N-(1-{methyl-[2-(pyridin-2-ylmethoxy)-ethyl]-carbamoyl}-2-phenyl-ethyl)-3-(4-trifluoromethyl-phenyl)-acrylamide]"
3,52 nM,"CC(=O)N1CCN(c2ccc(CN(C(=O)C=Cc3ccc(C(F)(F)F)cc3)[C@@H](Cc3ccccc3)C(=O)N(C)CCN(C)Cc3cccc(C#N)c3)cc2)CC1 [Example 243, (S)-N-[4-(4-Acetyl-piperazin-1-yl)-benzyl]-N-[1-({2-[(3-cyano-benzyl)-methyl-amino]-ethyl}-methyl-carbamoyl)-2-phenyl-ethyl]-3-(4-trifluoromethyl-phenyl)-acrylamide]"
4,94 nM,"CC(=O)N1CCN(c2ccc(CN(C(=O)C=Cc3ccc(C(F)(F)F)nc3)[C@@H](Cc3ccccc3)C(=O)N(C)CCOCCOCc3ccccc3)cc2)CC1 [Example 216, (S)-N-[4-(4-Acetyl-piperazin-1-yl)-benzyl]-N-(1-{[2-(2-benzyloxy-ethoxy)-ethyl]-methyl-carbamoyl}-2-phenyl-ethyl)-3-(6-trifluoromethyl-pyridin-3-yl)-acrylamide]"
5,7 nM,"CC(=O)N1CCN(c2ccc(CN(C(=O)C=Cc3ccc(C(F)(F)F)cc3)[C@@H](Cc3ccccc3)C(=O)N(C)CCOCc3cccnc3)cc2)CC1 [Example 190, (S)-N-[4-(4-Acetyl-piperazin-1-yl)-benzyl]-N-(1-{methyl-[2-(pyridin-3-ylmethoxy)-ethyl]-carbamoyl}-2-phenyl-ethyl)-3-(4-trifluoromethyl-phenyl)-acrylamide, formic acid]"
6,51 nM,"CC(=O)N1CCN(c2ccc(CN(C(=O)C=Cc3ccc(C(F)(F)F)cc3)[C@@H](Cc3ccccc3)C(=O)N(C)CCO)cc2)CC1 [Example 176, (S)-N-[4-(4-Acetyl-piperazin-1-yl)-benzyl]-N-{1-[(2-hydroxy-ethyl)-methyl-carbamoyl]-2-phenyl-ethyl}-3-(4-trifluoromethyl-phenyl)-acrylamide]"
7,10 nM,"COCCN(C)C(=O)[C@H](Cc1ccccc1)N(Cc1ccc(N2CCN(C(C)=O)CC2)cc1)C(=O)C=Cc1ccc(C(F)(F)F)cc1 [Example 178, (S)-N-[4-(4-Acetyl-piperazin-1-yl)-benzyl]-N-{1-[(2-methoxy-ethyl)-methyl-carbamoyl]-2-phenyl-ethyl}-3-(4-trifluoromethyl-phenyl)-acrylamide]"
8,9 nM,"CC(=O)N1CCN(c2ccc(CN(C(=O)C=Cc3ccc(C(F)(F)F)cc3)[C@@H](Cc3ccccc3)C(=O)N(C)CCOCc3ccc4c(c3)nnn4C)cc2)CC1 [Example 189, (S)-N-[4-(4-Acetyl-piperazin-1-yl)-benzyl]-N-(1-{methyl-[2-(1-methyl-1H-benzotriazol-5-ylmethoxy)-ethyl]-carbamoyl}-2-phenyl-ethyl)-3-(4-trifluoromethyl-phenyl)-acrylamide, formic acid]"
9,84 nM,"COc1ccc(CN(C)C(=O)[C@H](Cc2ccccc2)N(Cc2ccc(N3CCOCC3)cc2)C(=O)C=Cc2ccc(C(F)(F)F)nc2)cc1 [Example 177, (S)-N-{1-[(4-Methoxy-benzyl)-methyl-carbamoyl]-2-phenyl-ethyl}-N-(4-morpholin-4-yl-benzyl)-3-(6-trifluoromethyl-pyridin-3-yl)-acrylamide]"

# Continued, compound first:
row,SMILES,IC50
1,"COCCN(C)C(=O)[C@H](Cc1ccccc1)N(Cc1ccc(-c2ccccn2)cc1)C(=O)C=Cc1cnc(C)n1C [Example 76, (S)-3-(2,3-Dimethyl-3H-imidazol-4-yl)-N-{1-[(2-methoxy-ethyl)-methyl-carbamoyl]-2-phenyl-ethyl}-N-(4-pyridin-2-yl-benzyl)-acrylamide]",163 nM
2,"Cc1nn(C)c(C)c1C=CC(=O)N(Cc1ccc(-c2cncnc2)cc1)[C@@H](Cc1ccccc1)C(=O)N1CCC(N(C)C)CC1 [Example 36, (S)-N-[1-Benzyl-2-(4-dimethylamino-piperidin-1-yl)-2-oxo-ethyl]-N-(4-pyrimidin-5-yl-benzyl)-3-(1,3,5-trimethyl-1H-pyrazol-4-yl)-acrylamide]",173 nM
3,"COCCN(C)C(=O)[C@H](Cc1ccccc1)N(Cc1ccc(N2CCOCC2)cc1)C(=O)C=Cc1ccc(C)nc1 [Example 69, (S)-N-{1-[(2-Methoxy-ethyl)-methyl-carbamoyl]-2-phenyl-ethyl}-3-(6-methyl-pyridin-3-yl)-N-(4-morpholin-4-yl-benzyl)-acrylamide]",169 nM
4,"COc1ccc(C=CC(=O)N(Cc2ccc(N3CCOCC3)nc2)[C@@H](Cc2ccccc2)C(=O)N2CCOCC2)cc1 [Example 148, (S)-N-(1-Benzyl-2-morpholin-4-yl-2-oxo-ethyl)-3-(4-methoxy-phenyl)-N-(6-morpholin-4-yl-pyridin-3-ylmethyl)-acrylamide]",65 nM
5,"CC(=O)N1CCN(c2ccc(CN(C(=O)C=Cc3c(C)nn(C)c3C)[C@@H](Cc3ccccc3)C(=O)N3CCC(N(C)C)CC3)cc2)CC1 [Example 33, (S)-N-[4-(4-Acetyl-piperazin-1-yl)-benzyl]-N-[1-benzyl-2-(4-dimethylamino-piperidin-1-yl)-2-oxo-ethyl]-3-(1,3,5-trimethyl-1H-pyrazol-4-yl)-acrylamide]",319 nM
6,"Cc1nc(C=CC(=O)N(Cc2ccc(-c3ccccn3)cc2)[C@@H](Cc2ccccc2)C(=O)N2CCC(N(C)C)CC2)c(C)o1 [Example 13, (S)-N-[1-Benzyl-2-(4-dimethylamino-piperidin-1-yl)-2-oxo-ethyl]-3-(2,5-dimethyl-oxazol-4-yl)-N-(4-pyridin-2-yl-benzyl)-acrylamide]",355 nM
7,"Cc1noc(C)c1C=CC(=O)N(Cc1ccc(-c2cncnc2)cc1)[C@@H](Cc1ccccc1)C(=O)N1CCC(N(C)C)CC1 [Example 38, (S)-N-[1-Benzyl-2-(4-dimethylamino-piperidin-1-yl)-2-oxo-ethyl]-3-(3,5-dimethyl-isoxazol-4-yl)-N-(4-pyrimidin-5-yl-benzyl)-acrylamide]",417 nM
8,"COCCN(C)C(=O)[C@H](Cc1ccccc1)N(Cc1ccc(-c2ccccn2)cc1)C(=O)C=Cc1ccc(OC)nn1 [Example 82, (S)-N-{1-[(2-Methoxy-ethyl)-methyl-carbamoyl]-2-phenyl-ethyl}-3-(6-methoxy-pyridazin-3-yl)-N-(4-pyridin-2-yl-benzyl)-acrylamide]",99 nM
9,C[C@@H]1CC[C@H]2[C@@H](C)C(=O)O[C@@H]3O[C@@]4(C)CC[C@@H]1[C@]32OO4 [Artemisinin],3 nM
10,"CN(C)C1CCN(C(=O)[C@H](Cc2ccccc2)N(Cc2ccc(-c3ccccn3)cc2)C(=O)C=Cc2ccc(Cl)nc2)CC1 [Example 14, (S)-N-[1-Benzyl-2-(4-dimethylamino-piperidin-1-yl)-2-oxo-ethyl]-3-(6-chloro-pyridin-3-yl)-N-(4-pyridin-2-yl-benzyl)-acrylamide]",226 nM
11,CN(C)C1CCN(C(=O)C(Cc2ccnn2C)N(Cc2ccc(-c3ccccn3)cc2)C(=O)C=Cc2ccc(C(F)(F)F)cc2)CC1 (racemic) [Example 142],460 nM
12,"COCCN(C)C(=O)[C@H](Cc1ccccc1)N(Cc1ccc(-c2ccncc2)cc1)C(=O)C=Cc1c(C)noc1C [Example 96, (S)-3-(3,5-Dimethyl-isoxazol-4-yl)-N-{1-[(2-methoxy-ethyl)-methyl-carbamoyl]-2-phenyl-ethyl}-N-(4-pyridin-4-yl-benzyl)-acrylamide]",20 nM
13,"Cc1c(C=CC(=O)N(Cc2ccc(-c3cncnc3)cc2)[C@@H](Cc2ccccc2)C(=O)N2CCC(N(C)C)CC2)cnn1C [Example 43, (S)-N-[1-Benzyl-2-(4-dimethylamino-piperidin-1-yl)-2-oxo-ethyl]-3-(1,5-dimethyl-1H-pyrazol-4-yl)-N-(4-pyrimidin-5-yl-benzyl)-acrylamide]",354 nM
14,"COCCN(C)C(=O)[C@H](Cc1ccccc1)N(Cc1ccc(-c2ccncc2)cc1)C(=O)C=Cc1cnc(C)n1C [Example 92, (S)-3-(2,3-Dimethyl-3H-imidazol-4-yl)-N-{1-[(2-methoxy-ethyl)-methyl-carbamoyl]-2-phenyl-ethyl}-N-(4-pyridin-4-yl-benzyl)-acrylamide]",23 nM
15,"O=C([C@H](Cc1ccccc1)N(Cc1ccc(-c2ccccn2)cc1)C(=O)C=Cc1ccc(C(F)(F)F)cc1)N1CCC(CN2CCCC2)CC1 [Example 52, (S)-N-[1-Benzyl-2-oxo-2-(4-pyrrolidin-1-ylmethyl-piperidin-1-yl)-ethyl]-N-(4-pyridin-2-yl-benzyl)-3-(4-trifluoromethyl-phenyl)-acrylamide]",92 nM
16,"Cc1nn(C)c(C)c1C=CC(=O)N(Cc1ccc(N2CCOCC2)cc1)[C@@H](Cc1ccccc1)C(=O)N1CCC(N(C)C)CC1 [Example 1, (S)-N-[1-Benzyl-2-(4-dimethylamino-piperidin-1-yl)-2-oxo-ethyl]-N-(4-morpholin-4-yl-benzyl)-3-(1,3,5-trimethyl-1H-pyrazol-4-yl)-acrylamide]",211 nM
17,"Cc1nc(C=CC(=O)N(Cc2ccc(-c3ccncc3)cc2)[C@@H](Cc2ccccc2)C(=O)N2CCC(N(C)C)CC2)cs1 [Example 23, (S)-N-[1-Benzyl-2-(4-dimethylamino-piperidin-1-yl)-2-oxo-ethyl]-3-(2-methyl-thiazol-4-yl)-N-(4-pyridin-4-yl-benzyl)-acrylamide]",141 nM
18,"COCCN(C)C(=O)[C@H](Cc1ccccc1)N(Cc1ccc(-c2cccnc2)cc1)C(=O)C=Cc1sc(C)nc1C [Example 132, (S)-3-(2,4-Dimethyl-thiazol-5-yl)-N-{1-[(2-methoxy-ethyl)-methyl-carbamoyl]-2-phenyl-ethyl}-N-(4-pyridin-3-yl-benzyl)-acrylamide]",28 nM

# Source: US20110224210A1, “NOVEL BIS-AMIDES AS ANTI-MALARIAL AGENTS” (priority 2008, published 2011)
